From patent publication US20190309309A1, “BACTERIAL CELLS WITH IMPROVED TOLERANCE TO POLYOLS” (DANMARKS TEKNISKE UNIVERSITET, priority 2016, published 2019)
“Also recorded” adds a separate entry of the source. Where two headings read alike, the source gives them in different places.

Tests used:
[1] = system: Escherichia coli K-12 MG1655; assay: Screening for tolerance in wild-type cells: growth in varying concentrations of diols (Biolector); type: cell-based; details: for growth observed at maximum concentration / Maximum concentration for robust growth: K-12 MG1655; for toxicity threshold: E. coli
[2] = system: E. coli K-12 MG1655; type: cell-based
[3] = system: K-12 MG1655; type: cell-based, Escherichia coli
[4] = growth rate of K-12 MG1655, diol 0.5% (v/v), M9+1% glucose, 37° C.
[5] = growth rate of K-12 MG1655, diol 1% (v/v)
[6] = growth rate of K-12 MG1655, diol 2% (v/v)
[7] = growth rate of K-12 MG1655, diol 3.5% (v/v)
[8] = growth rate of K-12 MG1655, diol 5% (v/v)
[9] = growth rate of K-12 MG1655, diol 7.5% (v/v)
[10] = growth rate of K-12 MG1655, diol 10% (v/v)
[11] = lag time of K-12 MG1655, diol 0.5% (v/v)
[12] = lag time of K-12 MG1655, diol 1% (v/v)
[13] = lag time of K-12 MG1655, diol 2% (v/v)
[14] = lag time of K-12 MG1655, diol 3.5% (v/v)
[15] = lag time of K-12 MG1655, diol 5% (v/v)
[16] = K-12 MG1655, diol 1 % (v/v), Growth Profiler
[17] = K-12 MG1655, diol 2 % (v/v), Growth Profiler
[18] = K-12 MG1655, diol 3 % (v/v), Growth Profiler
[19] = K-12 MG1655, diol 4 % (v/v), Growth Profiler
[20] = K-12 MG1655, diol 5 % (v/v), Growth Profiler
[21] = K-12 MG1655, diol 6 % (v/v), Growth Profiler
[22] = K-12 MG1655, diol 7.5 % (v/v), Growth Profiler

Row | SMILES | μ, mean [1, 4] [h⁻¹] | μ, mean [1, 5] [h⁻¹] | μ, mean [1, 6] [h⁻¹] | μ, mean [1, 7] [h⁻¹] | μ, mean [1, 8] [h⁻¹] | μ, mean [1, 9] [h⁻¹] | μ, mean [1, 10] [h⁻¹] | tlag, mean [1, 11] [h] | tlag, mean [1, 12] [h] | tlag, mean [1, 13] [h] | tlag, mean [1, 14] [h] | other results
1 | CCCC(O)CO (centres unmarked) [1,2-pentanediol] | 0.524 | 0.346 | 0.000 | 0.000 | 0.000 | 0.000 | 0.000 | 0.4 | 1.3 |  |  | growth observed at maximum concentration [1]: 1%
2 | CC(O)CO (centres unmarked) [1,2-propanediol] | 0.701 | 0.662 | 0.595 | 0.442 | 0.406 | 0.579 | 0.000 | 0.9 | 0.8 | 0.8 | 0.5 | Maximum concentration for robust growth [1]: 7.5%; tlag, mean [1, 15]: 2.3 h; tlag, mean ([1]; lag time of K-12 MG1655, diol 7.5% (v/v)): 8.3 h
3 | OCCCO [1,3-propanediol] |  |  |  |  |  |  |  |  |  |  |  | tlag, mean [2, 16]: 5.3 h; μ, mean [2, 16]: 0.670 h⁻¹; tlag, mean [2, 17]: 6.1 h; μ, mean [2, 17]: 0.686 h⁻¹; tlag, mean [2, 18]: 7.3 h; μ, mean [2, 18]: 0.603 h⁻¹; tlag, mean [2, 19]: 9.6 h; μ, mean [2, 19]: 0.463 h⁻¹; tlag, mean [2, 20]: 12.5 h; μ, mean [2, 20]: 0.277 h⁻¹; tlag, mean [2, 21]: 14.7 h; μ, mean [2, 21]: 0.201 h⁻¹; tlag, mean [2, 22]: 24.9 h; μ, mean [2, 22]: 0.118 h⁻¹; growth inhibition of E. coli K-12 MG1655 (in words) ([2]; variable concentrations, Growth Profiler): elicited growth inhibition
4 | OCCCCO [1,4-butanediol] |  |  |  |  |  |  |  |  |  |  |  | growth inhibition of E. coli K-12 MG1655 (in words) [2]: elicited growth inhibition
5 | OCCCCCO [1,5-pentanediol] | 0.613 | 0.569 | 0.437 | 0.158 | 0.000 | 0.000 | 0.000 | 0.3 | 0.5 | 0.9 | -8.8 | growth observed at maximum concentration [1]: 3.5%
6 | CC(O)C(C)O (centres unmarked) [2,3-butanediol] | 0.944 | 0.791 | 0.754 | 0.498 | 0.265 | 0.054 | 0.000 | 2.2 | 1.8 | 2.1 | 1.6 | toxicity threshold [1]: 7.5 % (v/v); toxicity threshold ([1]; conversion of 7.5% (v/v)): 74.0 g/L; Maximum concentration for robust growth [1]: 5%; tlag, mean [1, 15]: -1.2 h
7 | CSCC[C@H](N)C(=O)O [methionine, L-methionine] |  |  |  |  |  |  |  |  |  |  |  | effect on growth of K-12 MG1655 in 2,3-butanediol [3]: significantly restored; effect on growth of evolved strains in 1,2-propanediol [3]: did not have a significantly enhanced growth rate; also recorded: minimal effect; effect on growth of the wild-type strain in 1,2-propanediol [3]: significantly restored; also recorded: restore growth of the wild-type strain; effect on growth rate of evolved strains in 2,3-butanediol [3]: did not have a significantly enhanced growth rate increase
